Laboratory results as given in article PMC3984052 (Bioorganic & medicinal chemistry, 2014).

How the values were obtained:
[1] = in vivo; for Tolerability after repeated dosing: mouse
[2] = test system: PrP^C on the cell surface of human T98G glioblastoma cells; type: cell-based; details: EC50 ratio

NC(=O)c1ccccc1NC(=O)c1cccnc1N1CCCCC1 [IND87406]
Tolerability after repeated dosing [1]: well tolerated

O=C(Cc1ccc(-c2ccccc2)cc1)NCc1ccccc1 [IND116065]
Potency relative to the bromo analog (IND61769) [2]: 5 fold

COc1ccc(Cl)cc1C(=O)N1CCN(c2cccc(Cl)c2)CC1 [IND30802]
Brain concentration relative to the EC50 value determined by ELISA ([1]; female, CD-1, mouse): 100 ×
Tolerability after repeated dosing [1]: well tolerated
